Data taken from US20250319108A1, “COMBINATIONS” (AN2 Therapeutics, Inc., priority 2021, published 2025).
Converted amounts (≈) assume the structure as drawn. Where a name gives a salt, the structure may show the parent alone. Read-outs that look alike come from different tables or passages of the source.

Assays:
M. abscessus ATCC 19977 = assay: MIC, broth microdilution; assay type: cell-based; details: for MIC: Mycobacteroides abscessus, ATCC19977, read-out: In Vitro Activity (MIC)
Method: (§1) Minimum inhibitory concentration (MIC) determinations: MIC values for the putative EBO resistant mutants were determined by broth microdilution method (BMD) in cation-adjusted Mueller Hinton broth according to Clinical and Laboratory Standards Institute document M24-A3 (Clinical and Laboratory Standards Institute. Susceptibility Testing of Mycobacteria, Nocardia spp., and Other Aerobic Actinomycetes. 3rd ed. CLSI standard M24. Clinical and Laboratory Standards Institute, Wayne, PA: 2018). Agar MIC values were determined as essentially described by CLSI M24-A3 using 7H10 Middlebrook agar and 5% OADC.

M. avium 2285R = assay: MIC, broth microdilution; assay type: cell-based; details: for MIC: Mycobacterium avium, read-out: In Vitro Activity (MIC)
Method: as §1

M. avium ATCC 700858 = assay: MIC, broth microdilution; assay type: cell-based; details: for MIC: Mycobacterium avium, ATCC700858, read-out: In Vitro Activity (MIC)
Method: as §1

M. chimaera 20-S-05 = assay: MIC, broth microdilution; assay type: cell-based; details: for MIC: 20S05, read-out: In Vitro Activity (MIC)
Method: as §1

[1] = tested on: M. intracellulare 20-S-13; assay: MIC, broth microdilution; assay type: cell-based; details: for MIC: Mycobacterium intracellulare
Method: as §1

[2] = tested on: M. intracellulare DNA000111; assay: MIC, broth microdilution; assay type: cell-based; details: for MIC: Mycobacterium intracellulare, read-out: In Vitro Activity (MIC)
Method: as §1

[3] = tested on: M. peregrinum ATCC 700686; assay: MIC, broth microdilution; assay type: cell-based; details: for MIC: Mycolicibacterium peregrinum, ATCC700686, read-out: In Vitro Activity (MIC)
Method: as §1

M. avium ATCC 700898 [4] = assay: Agar MIC; assay type: cell-based; details: 7H10 Middlebrook agar, 5% OADC; for MIC: Mycobacterium avium, ATCC700898
Method: as §1
(§2) Resistant colonies were confirmed by replica plating on agar plates containing antibiotic at the same concentration used to select resistance. Control plates containing no drug were prepared for inoculum determination. The RF was calculated by dividing the total CFU/mL of resistant colonies by the total CFU/mL of the inoculum.

[5] = tested on: M. avium ATCC 700898 isolate 16-3A; assay: MIC, EBO selected isolate; assay type: cell-based
Method: as §1, §2

[6] = tested on: M. avium ATCC 700898 isolate 16-5A; assay: MIC, EBO selected isolate; assay type: cell-based
Method: as §1, §2

[7] = tested on: M. avium ATCC 700898 isolate 32-5A; assay: MIC, EBO selected isolate; assay type: cell-based
Method: as §1, §2

[8] = tested on: M. avium ATCC 700898 isolate 32-8A; assay: MIC, EBO selected isolate; assay type: cell-based
Method: as §1, §2

[9] = tested on: M. avium ATCC 700898 isolate 64-3A; assay: MIC, EBO selected isolate; assay type: cell-based
Method: as §1, §2

[10] = tested on: M. avium ATCC 700898 isolate 64-4A; assay: MIC, EBO selected isolate; assay type: cell-based
Method: as §1, §2

M. avium ATCC 700898 WT = assay: MIC, parent strain; assay type: cell-based
Method: as §1, §2

M. avium ATCC 700898 [11] = assay type: cell-based
Method: as §2

[12] = tested on: EBO resistant mutants of M. avium ATCC 700898; assay type: cell-based
Method: as §1, §2

[13] = tested on: M. intracellulare 20-S-13; assay: Checkerboard synergy testing with EBO; assay type: cell-based; details: M. intracellulare 20-S-13, clarithromycin resistant
Method: Frozen stocks of the drugs were prepared at 5 or 2 mg/ml and frozen in aliquots at −20° C. On the day of the experiment the stocks were thawed and diluted to the appropriate concentration.
Stocks of isolates were prepared and frozen at −80° C. Fresh cultures of each isolate (1-2 weeks) were grown on either 7H10 agar plus 5% OADC or CAMH agar plus 5% OADC for use in each experiment.
(§3) The checkerboard methodology was used to test for synergy and antagonism using Middlebrook 7H9+5% OADC (Dubos et al. Am Rev Tuberc (1947) 56:334-45) as the microbiology growth media. The first antibiotic of the combination, EBO, was serially diluted along the x-axis, whereas the second antibiotic was diluted along the y- axis. Synergistic or antagonistic activity was determined using the sum of the fractional inhibitory concentration (EFIC) index. The FIC index is calculated as the sum of FIC A+FIC B, where FIC A is the MIC of drug A in the combination of drugs A and B divided by the MIC of drug A alone, plus the MIC of drug B in the combination of drugs A and B divided by the MIC of drug B alone. A combination of drugs is considered synergistic when the FIC is <0.5, additive when the FIC is >0.5 to 1, indifferent when the FIC is >1 to 2, and antagonistic when the FIC is >2 (EUCAST. Clin. Microbiol. Infect. (2000) 6: 503-508).

[14] = tested on: NTM strains (5 MAC strains, 2 rapidly growing); assay: Checkerboard synergy testing with EBO, summary over strains; assay type: cell-based
Method: as §3

M. avium ATCC 700898 [15] = details: Sensititre SLOMYCO plate; cited from earlier work
[16] = 20S13, M. intracellulare 20-S-13, read-out: In Vitro Activity (MIC)
[17] = 20S13, read-out: In Vitro Activity (MIC)
[18] = Mycobacterium avium, ATCC700898

| SMILES | MIC (M. abscessus ATCC 19977) [µg/mL] | MIC (M. avium 2285R) [µg/mL] | MIC (M. avium ATCC 700858) [µg/mL] | MIC (M. chimaera 20-S-05) [µg/mL] | MIC [2] [µg/mL] | MIC [3] [µg/mL] | MIC (M. avium ATCC 700898 [4]) [µg/mL] | MIC ([5]; Mycobacterium avium) [µg/mL] | MIC ([6]; Mycobacterium avium) [µg/mL] | MIC ([7]; Mycobacterium avium) [µg/mL] | MIC ([8]; Mycobacterium avium) [µg/mL] | MIC ([9]; Mycobacterium avium) [µg/mL] | MIC ([10]; Mycobacterium avium) [µg/mL] | MIC [1, 17] [µg/mL] | MIC (M. avium ATCC 700898 WT; [18]) [µg/mL] | further results |
| --- | --- | --- | --- | --- | --- | --- | --- | --- | --- | --- | --- | --- | --- | --- | --- | --- |
| NCC[C@H](O)C(=O)N[C@@H]1C[C@H](N)[C@@H](O[C@H]2O[C@H](CN)[C@@H](O)[C@H](O)[C@H]2O)[C@H](O)[C@H]1O[C@H]1O[C@H](CO)[C@@H](O)[C@H](N)[C@H]1O [AMK, Amikacin] | 64 (≈ 109 µM) | 8 (≈ 13.7 µM) | 16 (≈ 27.3 µM) | 32 (≈ 54.6 µM) | 16 (≈ 27.3 µM) | 2 (≈ 3.42 µM) | 32 (≈ 54.6 µM) | 32 (≈ 54.6 µM) | 32 (≈ 54.6 µM) | 32 (≈ 54.6 µM) | 32 (≈ 54.6 µM) | 32 (≈ 54.6 µM) | 32 (≈ 54.6 µM) |  |  | MIC [1, 16]: 20 µg/mL (≈ 34.2 µM) |
| COc1nc2ccc(Br)cc2cc1[C@@H](c1ccccc1)[C@@](O)(CCN(C)C)c1cccc2ccccc12 [BDQ, Bedaquiline] | 0.5 (≈ 0.9 µM) | 0.03 (≈ 0.054 µM) | 0.06 (≈ 0.108 µM) | 0.06 (≈ 0.108 µM) | 0.5 (≈ 0.9 µM) | 0.06 (≈ 0.108 µM) |  | 0.06 (≈ 0.108 µM) | 0.06 (≈ 0.108 µM) | 0.03 (≈ 0.054 µM) | 0.12 (≈ 0.216 µM) | 0.12 (≈ 0.216 µM) | 0.06 (≈ 0.108 µM) | > 0.5 | 0.06 (≈ 0.108 µM) |  |
| CC(C)/N=c1\cc2n(-c3ccc(Cl)cc3)c3ccccc3nc-2cc1Nc1ccc(Cl)cc1 [CFZ, clofazimine] |  |  |  |  |  |  |  | 0.25 (≈ 0.528 µM) | 0.25 (≈ 0.528 µM) | 0.5 (≈ 1.06 µM) | 0.25 (≈ 0.528 µM) | 0.5 (≈ 1.06 µM) | 0.5 (≈ 1.06 µM) |  | 0.5 (≈ 1.06 µM) |  |
| CC[C@H]1OC(=O)[C@H](C)[C@@H](O[C@H]2C[C@@](C)(OC)[C@@H](O)[C@H](C)O2)[C@H](C)[C@@H](O[C@@H]2O[C@H](C)C[C@H](N(C)C)[C@H]2O)[C@](C)(OC)C[C@@H](C)C(=O)[C@H](C)[C@@H](O)[C@]1(C)O [CLR, Clarithromycin] | 16 (≈ 21.4 µM) | 0.125 (≈ 0.167 µM) | 2 (≈ 2.67 µM) | 4 (≈ 5.35 µM) | 2 (≈ 2.67 µM) | 1 (≈ 1.34 µM) | 4 (≈ 5.35 µM) | 0.5 (≈ 0.668 µM) |  | 1 (≈ 1.34 µM) | 0.5 (≈ 0.668 µM) | 0.5 (≈ 0.668 µM) | 2 (≈ 2.67 µM) | > 128 | 2 (≈ 2.67 µM) |  |
| NC[C@H]1OB(O)c2c(OCCCO)cccc21 [EBO, Epetraborole hydrochloride] |  |  |  |  |  |  |  |  |  |  |  |  |  |  |  | In Vitro Activity (MIC) (M. abscessus ATCC 19977): 0.06 µg/mL; In Vitro Activity (MIC) (M. avium 2285R): 0.5 µg/mL; In Vitro Activity (MIC) (M. avium ATCC 700858): 2 µg/mL; In Vitro Activity (MIC) (M. chimaera 20-S-05): 2 µg/mL; In Vitro Activity (MIC) ([1]; M. intracellulare 20-S-13): 0.25 µg/mL; In Vitro Activity (MIC) [2]: 0.5 µg/mL; In Vitro Activity (MIC) [3]: 0.06 µg/mL; Agar MIC (M. avium ATCC 700898 [4]): 8 µg/mL; Resistance Frequency (M. avium ATCC 700898 [11]; EBO selection concentration 16 mg/L): 1.58 × 10^−7; Resistance Frequency (M. avium ATCC 700898 [11]; EBO selection concentration 32 mg/L): 1.21 × 10^−8; Resistance Frequency (M. avium ATCC 700898 [11]; EBO selection concentration 64 mg/L): 8.49 × 10^−9; Spontaneous resistance frequency (M. avium ATCC 700898 [11]; selected on 2-8× agar MIC): 1.58×10^−7 to 8.48×10^−9; MIC (M. avium ATCC 700898 WT; WT parent strain): 0.5 µg/mL; MIC ([5]; EBO selected isolate 16-3A): >128 µg/mL; MIC ([6]; EBO selected isolate 16-5A): 64 µg/mL; MIC ([7]; EBO selected isolate 32-5A): >128 µg/mL; MIC ([8]; EBO selected isolate 32-8A): >128 µg/mL; MIC ([9]; EBO selected isolate 64-3A): >128 µg/mL; MIC ([10]; EBO selected isolate 64-4A): >128 µg/mL; Change of MIC value in EBO resistant mutants versus wild-type [12]: ≥ 128 fold |
| CC[C@@H](CO)NCCN[C@@H](CC)CO [EMB, Ethambutol] | 32 (≈ 157 µM) | 16 (≈ 78.3 µM) | 8 (≈ 39.2 µM) | 4 (≈ 19.6 µM) | 32 (≈ 157 µM) | 8 (≈ 39.2 µM) | 8 (≈ 39.2 µM) | 4 (≈ 19.6 µM) | 4 (≈ 19.6 µM) | 4 (≈ 19.6 µM) | 8 (≈ 39.2 µM) | 4 (≈ 19.6 µM) | 8 (≈ 39.2 µM) | 64 (≈ 313 µM) | 4 (≈ 19.6 µM) | Interaction between ethambutol and EBO, in words [13]: indifference; Interaction with EBO over the 5 MAC strains tested, in words [14]: synergy was observed with 2 strains and additivity with an additional 2 strains |
| CO[C@H]1/C=C/O[C@@]2(C)Oc3c(C)c(O)c4c(c3C2=O)C2=NC3(CCN(CC(C)C)CC3)NC2=C(NC(=O)/C(C)=C\C=C\[C@H](C)[C@H](O)[C@@H](C)[C@@H](O)[C@@H](C)[C@H](OC(C)=O)[C@@H]1C)C4=O [RFB, Rifabutin] | 32 (≈ 37.8 µM) | 0.125 (≈ 0.148 µM) | 0.25 (≈ 0.295 µM) | 1 (≈ 1.18 µM) | 2 (≈ 2.36 µM) | 8 (≈ 9.44 µM) | 0.25 (≈ 0.295 µM) | 0.06 (≈ 0.0708 µM) | 0.06 (≈ 0.0708 µM) | 0.06 (≈ 0.0708 µM) | 0.125 (≈ 0.148 µM) | 0.06 (≈ 0.0708 µM) | 0.25 to 0.5 (≈ 0.295 to 0.59 µM) |  | 0.06 (≈ 0.0708 µM) | MIC [1, 16]: 0.06 µg/mL (≈ 0.0708 µM) |
| CO[C@H]1/C=C/O[C@@]2(C)Oc3c(C)c(O)c4c(O)c(c(/C=N/N5CCN(C)CC5)c(O)c4c3C2=O)NC(=O)/C(C)=C\C=C\[C@H](C)[C@H](O)[C@@H](C)[C@@H](O)[C@@H](C)[C@H](OC(C)=O)[C@@H]1C [rifampin, Rifampin] |  |  |  |  |  |  |  |  |  |  |  |  |  |  |  | MIC variance previously reported for this strain (M. avium ATCC 700898 [15]): 8 fold |
